Reference: the supplement of paper PMC4862054
One block for each molecule: values may come before it.

Tests used:
BT-474 = details: 72 h
Summary of the method: (§1)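 Per-plate normalisation used 0.1 % DMSO and a positive kill control. Breast cancer cell lines (20 µl suspension) were seeded into 384-well plates containing compound at 5 concentrations in 10-fold steps across a compound-specific 10,000-fold range, incubated for 72 h, and read first for CellTox Green fluorescence (485/520 nm), then for CellTiter-Glo luminescence. EC50 was fitted from the dose-response curves and censored at the top concentration.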

BT-549 [1] = details: 72 h
Summary of the method: as §1

CAL-148 [2] = details: 72 h
Summary of the method: as §1

CAL-51 [3] = details: 72 h
Summary of the method: as §1

DU-4475 [4] = details: 72 h
Summary of the method: as §1

HCC1143 [5] = details: 72 h
Summary of the method: as §1

HDQ-P1 = details: 72 h
Summary of the method: as §1

Hs578T [6] = details: 72 h
Summary of the method: as §1

MDA-MB-436 [7] = details: 72 h
Summary of the method: as §1

SK-BR-3 [8] = details: 72 h
Summary of the method: as §1

CAL-85-1 [9] = details: 72 h
Summary of the method: (§2)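 For viability, cells received 2.5 µl CellTiter-Blue for 2 h at 37 °C and fluorescence was read at 560/590 nm. Before this, breast cancer cell lines in 20 µl suspension had been incubated for 72 h on 384-well plates pre-loaded with compound dissolved in 5 µl medium. EC50 was obtained from a percent-inhibition dose-response fit censored at the highest concentration, after normalisation of each plate to vehicle and a positive kill control; rows with a zero drug sensitivity score were discarded.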

DU-4475 [10] = details: 72 h; remark: listed apart in the source
Summary of the method: as §2

MDA-MB-453 = details: 72 h
Summary of the method: as §2

BT-549 [11] = details: 72 h; remark: listed apart in the source
Summary of the method: as §2

CAL-120 = details: 72 h
Summary of the method: as §2

HCC1143 [12] = details: 72 h; remark: listed apart in the source
Summary of the method: as §2

HCC1599 [13] = details: 72 h
Summary of the method: as §2

HCC1937 [14] = details: 72 h
Summary of the method: as §2

Hs578T [15] = details: 72 h; remark: listed apart in the source
Summary of the method: as §2

MDA-MB-231 [16] = details: 72 h
Summary of the method: as §2

MDA-MB-436 [17] = details: 72 h; remark: listed apart in the source
Summary of the method: as §2

MDA-MB-468 [18] = details: 72 h
Summary of the method: as §2

SK-BR-3 [19] = details: 72 h; remark: listed apart in the source
Summary of the method: as §2

CAL-148 [20] = details: 72 h; remark: listed apart in the source
Method: (§3)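 Drug sensitivity and resistance testing (DSRT) of breast cancer cell lines in 384-well plates, 5 concentrations in 10-fold dilutions over a compound-specific 10,000-fold range. After 72 h, cytotoxicity was read by CellTox Green fluorescence and viability by CellTiter-Glo luminescence (multiplexed), normalised to DMSO and benzethonium chloride controls. EC50 is the inflection point of the fitted dose-response curve (bottom asymptote free, so it can be relative for partial curves) and is censored at the highest tested concentration. Rows with DSS 0 (no meaningful response) were excluded.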

CAL-51 [21] = details: 72 h; remark: listed apart in the source
Method: as §3

HCC1937 [22] = experiment: drug sensitivity score (DSS), CellTox Green (DSS (AUC-based score)); higher = stronger drug effect (viability inhibition or cytotoxicity); extreme values may be limits of the assay; details: incubation time: 72 h
Summary of the method: (§4)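 Normalisation on every plate relied on 0.1 % DMSO and a positive kill control. The plates, 384-well format, held compound at 5 concentrations 10-fold apart across a compound-specific 10,000-fold range, and breast cancer cell lines in 20 µl suspension were incubated on them for 72 h before CellTox Green and then CellTiter-Glo readings. The drug sensitivity score derives from the area under the fitted dose-response curve.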

Hs578T [23] = experiment: as above; details: incubation time: 72 h
Summary of the method: as §4

MDA-MB-231 [24] = experiment: as above; details: incubation time: 72 h
Summary of the method: as §4

MFM-223 = details: 72 h
Summary of the method: as §1

CAL-85-1 [25] = details: 72 h; remark: listed apart in the source
Summary of the method: as §1

HCC1599 [26] = details: 72 h; remark: listed apart in the source
Summary of the method: as §1

HCC1937 [27] = details: 72 h; remark: listed apart in the source
Summary of the method: as §1

MDA-MB-231 [28] = details: 72 h; remark: listed apart in the source
Summary of the method: as §1

MDA-MB-231 [29] = details: 72 h; remark: listed apart in the source
Method: as §3

MDA-MB-468 [30] = details: 72 h; remark: listed apart in the source
Method: as §3

CAL-85-1 [31] = details: 72 h; remark: listed apart in the source
Method: as §3

EC50, CellTiter-Glo (BT-474): > 10 µM | EC50, CellTiter-Glo (BT-549 [1]): 0.305 µM | EC50, CellTiter-Glo (HCC1143 [5]): 1.27 µM | EC50, CellTiter-Glo (MDA-MB-436 [7]): 0.364 µM | EC50, CellTiter-Glo (SK-BR-3 [8]): 0.156 µM | EC50, CellTiter-Blue viability (MDA-MB-453): 0.396 µM | EC50, CellTiter-Blue viability (BT-549 [11]): 0.0129 µM | EC50, CellTiter-Blue viability (HCC1143 [12]): 0.213 µM | EC50, CellTiter-Blue viability (HCC1599 [13]): 0.556 µM | EC50, CellTiter-Blue viability (HCC1937 [14]): 0.117 µM | EC50, CellTiter-Blue viability (MDA-MB-231 [16]): 0.183 µM | EC50, CellTiter-Blue viability (MDA-MB-436 [17]): 0.156 µM | EC50, CellTiter-Blue viability (MDA-MB-468 [18]): 0.483 µM | EC50, CellTiter-Blue viability (SK-BR-3 [19]): 0.487 µM
SMILES: Nc1ccn([C@@H]2O[C@H](CO)[C@@H](O)[C@@H]2O)c(=O)n1 [Cytarabine]
EC50, CellTiter-Glo (CAL-148 [2]): 0.2 µM | EC50, CellTiter-Glo (CAL-51 [3]): 0.544 µM | EC50, CellTiter-Glo (DU-4475 [4]): 0.339 µM | EC50, CellTiter-Glo (HDQ-P1): 2.89 µM | EC50, CellTiter-Glo (Hs578T [6]): 0.462 µM | EC50, CellTiter-Blue viability (CAL-85-1 [9]): 1.19 µM | EC50, CellTiter-Blue viability (DU-4475 [10]): 0.45 µM | EC50, CellTiter-Blue viability (CAL-120): 0.246 µM | EC50, CellTiter-Blue viability (Hs578T [15]): 0.0173 µM | EC50, CellTox Green (CAL-148 [20]): 0.0616 µM | EC50, CellTox Green (CAL-51 [21]): 0.315 µM | drug sensitivity score (HCC1937 [22]): 0 | drug sensitivity score (Hs578T [23]): 0 | drug sensitivity score (MDA-MB-231 [24]): 0

EC50, CellTiter-Glo (BT-474): > 10 µM | EC50, CellTiter-Blue viability (HCC1937 [14]): 1.65 µM
SMILES: N#CC[C@H](C1CCCC1)n1cc(-c2ncnc3[nH]ccc23)cn1 [Ruxolitinib]
EC50, CellTiter-Glo (MFM-223): > 10 µM | drug sensitivity score (Hs578T [23]): 0 | drug sensitivity score (MDA-MB-231 [24]): 0

EC50, CellTiter-Glo (BT-474): 3.92 µM | EC50, CellTiter-Glo (HCC1599 [26]): 3.82 µM | EC50, CellTiter-Glo (HCC1937 [27]): 0.833 µM | EC50, CellTiter-Glo (MDA-MB-231 [28]): 0.906 µM | EC50, CellTiter-Blue viability (HCC1937 [14]): 1.55 µM | EC50, CellTiter-Blue viability (MDA-MB-468 [18]): 0.387 µM
SMILES: S=c1[nH]cnc2nc[nH]c12 [Mercaptopurine]
EC50, CellTiter-Glo (CAL-85-1 [25]): 4.41 µM | EC50, CellTiter-Glo (DU-4475 [4]): 1.82 µM | EC50, CellTiter-Glo (HDQ-P1): 0.569 µM | EC50, CellTiter-Glo (Hs578T [6]): 0.985 µM | EC50, CellTiter-Blue viability (CAL-120): 9.91 µM | drug sensitivity score (HCC1937 [22]): 0 | drug sensitivity score (Hs578T [23]): 0 | drug sensitivity score (MDA-MB-231 [24]): 0

EC50, CellTiter-Glo (BT-549 [1]): 0.125 µM | EC50, CellTiter-Blue viability (BT-549 [11]): 0.839 µM | EC50, CellTiter-Blue viability (HCC1143 [12]): > 1 µM | EC50, CellTiter-Blue viability (HCC1937 [14]): 0.0734 µM | EC50, CellTiter-Blue viability (MDA-MB-231 [16]): 0.00912 µM | EC50, CellTiter-Blue viability (MDA-MB-436 [17]): 0.799 µM | EC50, CellTiter-Blue viability (SK-BR-3 [19]): 0.884 µM
SMILES: Nc1nc(Cl)nc2c1ncn2[C@H]1C[C@H](O)[C@@H](CO)O1 [Cladribine]
EC50, CellTiter-Blue viability (DU-4475 [10]): 0.879 µM | EC50, CellTiter-Blue viability (CAL-120): 0.923 µM | EC50, CellTox Green (MDA-MB-231 [29]): > 1 µM | EC50, CellTox Green (MDA-MB-468 [30]): 0.0025 µM | drug sensitivity score (HCC1937 [22]): 0 | drug sensitivity score (Hs578T [23]): 0 | drug sensitivity score (MDA-MB-231 [24]): 0.0524

EC50, CellTiter-Glo (BT-474): > 10 µM
SMILES: C=CC[C@@H]1/C=C(\C)C[C@H](C)C[C@H](OC)[C@H]2O[C@@](O)(C(=O)C(=O)N3CCCC[C@H]3C(=O)O[C@H](/C(C)=C/[C@@H]3CC[C@@H](O)[C@H](OC)C3)[C@H](C)[C@@H](O)CC1=O)[C@H](C)C[C@@H]2OC [Tacrolimus]
drug sensitivity score (HCC1937 [22]): 0 | drug sensitivity score (Hs578T [23]): 0 | drug sensitivity score (MDA-MB-231 [24]): 2.92

The remaining lines, values behind:

SMILES: CC(=O)O[C@]1(C(C)=O)CC[C@H]2[C@@H]3C=C(C)C4=CC(=O)CC[C@]4(C)[C@H]3CC[C@@]21C [Megestrol acetate]
drug sensitivity score (HCC1937 [22]): 0 | drug sensitivity score (Hs578T [23]): 1.68 | drug sensitivity score (MDA-MB-231 [24]): 0

SMILES: C[C@]1(c2nc3c(C(N)=O)cccc3[nH]2)CCCN1 [Veliparib]
EC50, CellTiter-Glo (CAL-51 [3]): 0.05 µM | EC50, CellTox Green (CAL-85-1 [31]): > 10 µM | drug sensitivity score (HCC1937 [22]): 0 | drug sensitivity score (Hs578T [23]): 0 | drug sensitivity score (MDA-MB-231 [24]): 0

SMILES: OC[C@H]1O[C@@H](n2cnc3c2N=CNC[C@H]3O)C[C@@H]1O [Pentostatin]
drug sensitivity score (HCC1937 [22]): 0 | drug sensitivity score (Hs578T [23]): 0 | drug sensitivity score (MDA-MB-231 [24]): 0

SMILES: Cc1ccc(F)c(NC(=O)Nc2ccc(-c3cccc4[nH]nc(N)c34)cc2)c1 [Linifanib]
EC50, CellTiter-Glo (CAL-51 [3]): 0.411 µM | drug sensitivity score (HCC1937 [22]): 0 | drug sensitivity score (Hs578T [23]): 0 | drug sensitivity score (MDA-MB-231 [24]): 0
